# Values of other authors as cited in US20230414606A1 (Lake O'Hara LLC, priority 2022, published 2023).
# Key:
# [1] = molecular target: CYP3A4 (Homo sapiens, UniProt P08684); conditions: based on the literature, model input
# [2] = tested on: CYP2D6
# [3] = previous studies, no patients with BMI>35 kg/m2
# [4] = based on the literature, model input
# Sequence of CYP3A4 (P08684 whole entry): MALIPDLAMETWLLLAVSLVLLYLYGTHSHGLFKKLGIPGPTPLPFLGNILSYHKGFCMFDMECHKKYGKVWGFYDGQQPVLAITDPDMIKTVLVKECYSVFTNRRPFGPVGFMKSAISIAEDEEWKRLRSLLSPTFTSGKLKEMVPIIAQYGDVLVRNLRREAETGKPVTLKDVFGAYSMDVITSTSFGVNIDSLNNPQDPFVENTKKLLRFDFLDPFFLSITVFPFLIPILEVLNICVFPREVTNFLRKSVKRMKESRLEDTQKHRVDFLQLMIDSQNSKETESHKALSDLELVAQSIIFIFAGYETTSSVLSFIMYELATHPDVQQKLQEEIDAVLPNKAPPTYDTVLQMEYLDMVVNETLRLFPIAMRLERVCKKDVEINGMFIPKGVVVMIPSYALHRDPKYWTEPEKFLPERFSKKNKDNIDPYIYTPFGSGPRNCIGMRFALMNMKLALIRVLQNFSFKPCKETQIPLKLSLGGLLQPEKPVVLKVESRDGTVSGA
compound,measurement,setting,value
"O=c1ccc2ccc(OCCCCN3CCN(c4cccc5sccc45)CC3)cc2[nH]1 [brexpiprazole, 7-14-14-(1-Benzothiophen-4-yl)piperazin-1-yllbutoxylquinolin-2(1H)-one]",brexpiprazole clearance due to CYP3A4,[1],46.7%
same,decrease of baseline clearance by CYP2D6 PM status,[2]; CYP2D6 PM,~30%
same,brexpiprazole clearance due to CYP2D6,[2]; [4],43.3%
same,effect of weight on the pharmacokinetics of brexpiprazole,[3],less than 20%
same,brexpiprazole clearance due to other routes,[4],10%
same,renal clearance,"model assumption, clearance entirely in the liver",~1%
